The experiment addresses T1, human PAD4 (Homo sapiens, UniProt Q9UM07).
T1 construct: human PAD4 (NM_012387), A2-P663, was PCR amplified; His-SUMO (N, cleaved yes); made in house; host or cells: E. coli BL21(DE3)
Put plainly: In vitro PAD4 BAEE biochemical assay. Conditions: BAEE substrate 3 mM, 5 nM PAD4, 2 mM calcium chloride; geometric mean of multiple experiments. The essentials: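 Ammonia produced by BAEE deimination (3 mM substrate, 2 h, 25 °C) was read as fluorescent isoindole after o-phthalaldehyde/DTT derivatization, ex 405 nm/em 535 nm. Human PAD4 at 5 nM final, 2 mM calcium, pH 7.6 MOPS; compound preincubated 30 min. IC50s, normalized to BB-Cl-Amidine and DMSO controls, were geometric-mean averaged.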
T1 sequence (Q9UM07 2-663): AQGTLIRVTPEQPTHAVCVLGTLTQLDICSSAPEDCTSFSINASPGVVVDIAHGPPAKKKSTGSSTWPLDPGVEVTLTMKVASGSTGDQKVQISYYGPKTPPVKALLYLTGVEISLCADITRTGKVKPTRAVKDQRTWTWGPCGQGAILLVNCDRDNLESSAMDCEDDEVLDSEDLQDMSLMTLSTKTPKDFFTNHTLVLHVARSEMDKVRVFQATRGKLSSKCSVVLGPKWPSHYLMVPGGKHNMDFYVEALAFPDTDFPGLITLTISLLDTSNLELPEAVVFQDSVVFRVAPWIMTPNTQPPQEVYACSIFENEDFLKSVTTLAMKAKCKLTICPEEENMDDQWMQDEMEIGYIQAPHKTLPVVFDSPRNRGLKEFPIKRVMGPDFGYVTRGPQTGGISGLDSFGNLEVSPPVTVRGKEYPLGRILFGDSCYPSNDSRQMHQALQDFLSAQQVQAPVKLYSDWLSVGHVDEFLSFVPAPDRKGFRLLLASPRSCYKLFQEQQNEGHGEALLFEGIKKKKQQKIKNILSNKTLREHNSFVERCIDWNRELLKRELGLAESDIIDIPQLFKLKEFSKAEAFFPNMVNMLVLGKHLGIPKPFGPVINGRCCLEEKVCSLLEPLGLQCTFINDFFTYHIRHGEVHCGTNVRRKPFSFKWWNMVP
The term IC50 denotes the point on the concentration scale where inhibition reaches its midpoint. Consider `COc1cc(C(=O)N2[C@H]3CC[C@@H]2[C@H](N)C3)cc2nc(-c3cc4ccc5nc4n3CCCCC[C@@H](OC)CC(=O)N[C@@H]5C)c(C)n12` [Example 333, (7~{R},11~{R})-17-[7-[(1~{R},2~{R},4~{S})-2-amino-7-azabicyclo[2.2.1]heptane-7-carbonyl)-5-methoxy-3-methyl-imidazo[1,2-a]pyridin-2-yl]-7-methoxy-11-methyl-1,10,19-triazatricyclo[10.5.2.0^{15,18}]nonadeca-12(19),13,15(18),16-tetraen-9-one], for which the IC50 is 33 nM.
Consider `COc1cc(C(=O)N2[C@H]3CC[C@@H]2[C@H](N)C3)cc2nc(-c3cc4ccc5nc4n3C[C@H]3C[C@H]3COCCC(=O)N[C@@H]5C)n(C)c12` [Example 336, (3~{S),5~{R},12~{R})-18-[5-[(1~{R},2~{R},4~{S})-2-amino-7-azabicyclo[2.2.1]heptane-7-carbonyl]-7-methoxy-1-methyl-benzimidazol-2-yl]-12-methyl-7-oxa-1,11,20-triazatetracyclo[11.5.2.0^{3,5}.0^{16,19}] icosa-13(20),14,16(19),17-tetraen-10-one], for which the IC50 is 34 nM.
`COc1cc(C(=O)N2[C@H]3CC[C@@H]2[C@H](N)C3)cc2nc(-c3cc4ccc5nc4n3C[C@@H]3C[C@@H]3COCCC(=O)N[C@@H]5C)n(C)c12` [Example 337, (3~{R},5~{S},12~{R})-18-[5-[(1~{R},2~{R},4~{S})-2-amino-7-azabicyclo[2.2.1]heptane-7-carbonyl]-7-methoxy-1-methyl-benzimidazol-2-yl]-12-methyl-7-oxa-1,11,20-triazatetracyclo[11.5.2.0^{3,5}.0^{16,19}] icosa-13(20),14,16(19),17-tetraen-10-one]: the half-maximal inhibitory concentration (IC50) was found to be 32 nM.
`COc1cc(C(=O)N2[C@H]3CC[C@@H]2[C@H](N)C3)cc2nc(-c3cc4ccc5nc4n3CC[C@H]3C[C@H]3COCCC(=O)N[C@@H]5C)n(C)c12` [Example 338, (4~{R},6~{R},13~{R})-19-[5-[(1~{R},2~{R},4~{S})-2-amino-7-azabicyclo[2.2.1]heptane-7-carbonyl]-7-methoxy-1-methyl-benzimidazol-2-yl]-13-methyl-8-oxa-1,12,21-triazatetracyclo[12.5.2.0^{4,6}.0^{17,20}] henicosa-14(21),15,17(20),18-tetraen-11-one]: the concentration for half-maximal inhibition (IC50) was found to be 53 nM.
Turning to `COc1cc(C(=O)N2[C@H]3CC[C@@H]2[C@H](N)C3)cc2nc(-c3cc4ccc5cc4n3CCCCCC[C@](C)(OC)C(=O)N[C@@H]5C)n(C)c12` [Example 339, (8~{S),11~{R})-17-[5-[(1~{R},2~{R},4~{S})-2-amino-7-azabicyclo[2.2.1]heptane-7-carbonyl]-7-methoxy-1-methyl-benzimidazol-2-yl]-8-methoxy-8,11-dimethyl-1,10-diazatricyclo[10.5.2.0^{15,18}]nonadeca-12(19),13,15(18),16-tetraen-9-one], the IC50 was found to be 39 nM.
As for `COc1cc(C(=O)N2[C@H]3CC[C@@H]2[C@H](N)C3)cc2nc(-c3cc4ccc5cc4n3CCCCCC[C@@](C)(OC)C(=O)N[C@@H]5C)n(C)c12` [Example 340, (8~{R},11~{R})-17-[5-[(1~{R},2~{R},4~{S})-2-amino-7-azabicyclo[2.2.1]heptane-7-carbonyl]-7-methoxy-1-methyl-benzimidazol-2-yl]-8-methoxy-8,11-dimethyl-1,10-diazatricyclo[10.5.2.0^{15,18}]nonadeca-12(19),13,15(18),16-tetraen-9-one], the IC50 stood at 61 nM.
The result for `COCC1(C)CCCCCCn2c(-c3nc4cc(C(=O)N5[C@H]6CC[C@@H]5[C@H](N)C6)cc(OC)c4n3C)cc3ccc(cc32)[C@@H](C)NC1=O` (stereo partly shown) [Example 341, (11~{R})-17-[5-[(1~{R},2~{R},4~{S})-2-amino-7-azabicyclo[2.2.1]heptane-7-carbonyl]-7-methoxy-1-methyl-benzimidazol-2-yl]-8-(methoxymethyl)-8,11-dimethyl-1,10-diazatricyclo[10.5.2.0^{15,18}]nonadeca-12(19),13,15(18),16-tetraen-9-one] reads 59 nM; that for `COc1cc(C(=O)N2[C@H]3CC[C@@H]2[C@H](N)C3)cc2nc(-c3cc4ccc5cc4n3CCCOC[C@H]3C[C@H]3C(=O)N[C@@H]5C)n(C)c12` [Example 342, (2~{R},5~{R},7~{S})-14-[5-[(1~{R},2~{R},4~{S})-2-amino-7-azabicyclo[2.2.1]heptane-7-carbonyl]-7-methoxy-1-methyl-benzimidazol-2-yl]-2-methyl-9-oxa-3,13-diazatetracyclo[11.5.2.0^{5,7}.0^{16,20}] icosa-1(19),14,16(20),17-tetraen-4-one], 43 nM; that for `COc1cc(C(=O)N2CC[C@H]3OCCN[C@H]3C2)cc2nc(-c3cc4ccc5nc4n3CCCCCCC3(CC3)C(=O)N[C@@H]5C)n(C)c12` [Example 343, (11~{R})-17-[5-[(4~{a}~{S),8~{a}~{R})-2,3,4,4~{a},5,7,8,8~{a}-octahydropyrido[4,3-b][1,4]oxazine-6-carbonyl]-7-methoxy-1-methyl-benzimidazol-2-yl]-11-methyl-spiro[1,10,19-triazatricyclo[10.5.2.0^{15,18}]nonadeca-12(19),13,15(18),16-tetraene-8,1′-cyclopropane]-9-one], 371 nM.
The result for `COc1cc(C(=O)N[C@H]2CNCC[C@@H]2F)cc2nc(-c3cc4ccc5nc4n3CCCCCc3cnccc3C(=O)N[C@@H]5C)n(C)c12` [Example 344, ~{N}-[(3~{S},4~{S})-4-fluoro-3-piperidyl]-7-methoxy-1-methyl-2-[(2~{R})-2-methyl-4-oxo-3,8,16,22-tetrazatetracyclo[14.5.2.0^{5,10}.0^{19,23}]tricosa-1(22),5,7,9,17,19(23),20-heptaen-17-yl]benzimidazole-5-carboxamide] reads 51 nM; that for `COc1cc(C(=O)N[C@H]2CNCC[C@@H]2F)cc2nc(-c3cc4ccc5nc4n3CCCCCc3cccc(F)c3C(=O)N[C@@H]5C)n(C)c12` [Example 345, 2-[(2~{R})-6-fluoro-2-methyl-4-oxo-3,16,22-triazatetracyclo[14.5.2.0^{5,10}.0^{19,23)]tricosa-1(22),5,7,9,17,19(23),20-heptaen-17-yl]-~{N}-[(3~{S},4~{S})-4-fluoro-3-piperidyl]-7-methoxy-1-methyl-benzimidazole-5-carboxamide], 60 nM.
In the case of `COc1cc(C(=O)N[C@H]2CNCC[C@@H]2F)cc2nc(-c3cc4ccc5nc4n3C[C@@H]3C[C@H]3CCc3ccccc3C(=O)N[C@@H]5C)n(C)c12` [Example 346, ~{N}-[(3~{S),4~{S})-4-fluoro-3-piperidyl]-7-methoxy-1-methyl-2-[(3~{R},5~{R},16~{R})-16-methyl-14-oxo-1,15,24-triazapentacyclo[15.5.2.0^{3,5}.0^{8,13}.0^ {20,23}]tetracosa-8,10,12,17(24),18,20(23),21-heptaen-22-yl]benzimidazole-5-carboxamide] it was 97 nM.
As to `C[C@H]1NC(=O)c2ccccc2CCCCCn2c(-c3nc4cc(C(=O)N[C@H]5CNCC[C@@H]5F)c(F)cc4n3C3CC3)cc3ccc1nc32` [Example 347, 1-cyclopropyl-6-fluoro-~{N}-[(3~{S},4~{S})-4-fluoro-3-piperidyl]-2-[(2~{R})-2-methyl-4-oxo-3,16,22-triazatetracyclo[14.5.2.0^{5,10}.0^{19,23}]tricosa-1(22),5,7,9,17,19(23),20-heptaen-17-yl]benzimidazole-5-carboxamide], the half-maximal inhibitory concentration (IC50) is 51 nM.

Source of the values: patent US11976083B2, “Inhibitors of peptidylarginine deiminases” (Gilead Sciences, Inc., priority 2020, dated 2024).
